The results in this text go back to patent publication US20240424118A1, “VECTORS TARGETING BETA-D-N-ACETYLGLUCOSAMINIDASE” (CENTRE NATIONAL DE LA RECHERCHE SCIENTIFIQUE, priority 2021, published 2024).

The test system of one data set is KB tumor line. Description: Antiproliferative activity (cell viability) on KB tumor line, with or without β-N-acetylglucosaminidase. It counts as cell-based, human. To be noted: KB cells, 72 hours of incubation. As to the method:
(§1) The curves with the circles correspond to MMAE, the curves with the squares correspond to vector 80 and the curves with the triangles correspond to vector 80 in the presence of GlcNase.
(§2) The antiproliferative activity of vector 80 was evaluated on human KB and MDA-MB-231 tumor lines and compared to that of MMAE. To do this, compound 80 was placed in the culture medium in the absence or presence of β-N-acetylglucosaminidase and cell viability was measured after 72 hours of incubation (FIG. 1).

Another data set concerns MDA-MB-231 tumor line. Description: Antiproliferative activity (cell viability) on MDA-MB-231 tumor line, with or without β-N-acetylglucosaminidase. It counts as cell-based, human. To be noted: MDA-MB-231 cells, 72 hours of incubation. As to the method:
as §1, §2

The subject of data set [1] is MDA-MB-231 orthotopic tumors. Description: Therapeutic efficacy on MDA-MB-231 orthotopic triple negative breast tumor model in mice. It counts as in vivo. The procedure:
The vectors were administered on days 21, 35 and 49. Each point corresponds to the average of the tumor volumes±SEM. The curves with the triangles correspond to the vehicle and the curves with the squares correspond to the vector 80.
The therapeutic efficacy of vector 80 was evaluated in mice, on a triple negative breast tumor model of the MDA-MB-231 type (FIG. 2). Compound 80 was administered three times, with a period of 14 days, intravenously in the caudal vein, at a dose of 4 mg·kg^−1.

Turning to `CC[C@H](C)[C@@H]([C@@H](CC(=O)N1CCC[C@H]1[C@H](OC)[C@@H](C)C(=O)N[C@H](C)[C@@H](O)c1ccccc1)OC)N(C)C(=O)[C@@H](NC(=O)[C@H](C(C)C)N(C)C(=O)OC(Cc1cn(CCOCCOCCOCCOCCOCCOCCOCCOCCOCCOCCNC(=O)CCCCCN2C(=O)C=CC2=O)nn1)c1ccc(O[C@@H]2OC(CO)[C@@H](O)[C@H](O)C2NC(C)=O)c([N+](=O)[O-])c1)C(C)C` (stereo partly shown) [vector 80], the “cytotoxicity in the absence versus presence of β-N-acetylglucosaminidase” value in the data set with KB tumor line and with MDA-MB-231 tumor line was “identical cytotoxicity” in each case. Besides, the “therapeutic activity relative to the control group” value in data set [1] (4 mg·kg^−1 intravenously, days 21, 35 and 49) is recorded as “significant therapeutic activity”. Moreover, the “mice with total and lasting regression of the tumor” value in data set [1] (end of the experiment (day 63), 4 mg·kg^−1 intravenously) is listed as 3/6. In addition, the “mice that no longer had detectable tumors” value in data set [1] (from day 35, after the first injection, 4 mg·kg^−1 intravenously) is listed as 4/6. Also, the “reduction in the initial tumor size (initial response to treatment)” value in data set [1] (initial response, before regrowth at day 42, 4 mg·kg^−1 intravenously) is on record as 90%. The “mortality (tolerance)” value in data set [1] (until end of protocol (day 63), 4 mg·kg^−1 intravenously, three administrations) is “no mortality”.
